Measured values from patent US6201006A, “Aromatic amidine derivatives useful as selective thrombin inhibitors” (C & C Research Laboratories, priority 1996, dated 2001).
Several values for one entry are separate records, joined by “and”; a condition that tells them apart may be missing. Identical values can stand only once. Like-named read-outs stand apart in the source and are kept apart here.

Tests used:
[1] = test system: thrombin time (TT) in rat plasma; experiment: Thrombin time (TT) in rat plasma after oral administration; assay type: in vivo, SD male rats; conditions: TT after / TT before administration
Protocol: SD male rats weighing 220±20 g which had fasted overnight were used as experimental animals. Blood taken from the hearts of the experimental animals just before administration of the test compound and at 30, 60, 120 and 240 minutes after oral administration of the test compound was mixed with 0.108M sodium citrate in the ratio of 9:1. The mixtures thereby obtained were centrifuged at 15,000 rpm for 5 minutes at 4° C. to separate the plasma, which was stored at -20° C. until the TT was measured by means of the method described below.
200 μl of Owren's buffer was added to 50 μl of the plasma and 100 μl of the diluted plasma thereby obtained was injected into the vial of a coagulometer and then incubated for 2 minutes at 37° C. To each vial was added 100 μl of thrombin at a concentration of 20 U/ml, which had prewarmed at 37° C., to measure the time (TT) until clotting occurred. The ratio of the TT in rat plasma after administration of the test compound to the TT in rat plasma before administration of the test compound was calculated.

[2] = target: T1, human thrombin (Homo sapiens, UniProt P00734); experiment: Inhibitory activity for thrombin (chromogenic substrate hydrolysis, 405 nm); assay type: biochemical
T1 construct: purchased Sigma T-6759
How it was run: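 Thrombin: human enzyme (5 units/ml stock, 0.1% BSA) acted for 20 min on N-benzoyl-Phe-Val-Arg-p-nitroanilide in 125 mM NaCl, 50 mM Tris-HCl pH 8.0, with compounds dissolved in 50% methanol. Hydrolysis was read at 405 nm. Selectivity index was trypsin IC50 divided by thrombin IC50.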

[3] = Pharmacokinetic test in rats (intravenous injection and oral administration); assay type: in vivo, S.D. male rats; conditions: for bioavailability: oral vs intravenous
Protocol: S.D. male rats weighing 200±20 g which had fasted overnight were subjected to cannulation at their femoral veins and arteries. Compound 88 prepared in Example 62 was dissolved in physiological saline and then administered to the rats both by intravenous injection and oral administration. Blood was taken at prescribed intervals of time and then immediately mixed with methanol. The mixture was centrifuged (15,000 rpm, 5 min., 4° C.) to obtain quantitative amount of the supernatant which was then subjected to HPLC in Diode Array Detector at 254 nm to analyse the concentration of the test compound in the blood.

Selectivity (trypsin/thrombin) ([2]; IC50 for trypsin divided by IC50 for thrombin): 8.1 | IC50 ([2]; human thrombin, 20 min, pH 8.0, N-benzoyl-Phe-Val-Arg-p-nitroanilide): 0.0159 µM | Blood concentration, individual rats (Rat-1 to Rat-5) ([3]; i.v. 10 mg/kg, 0.000 h): 0 ng/mL | Blood concentration, individual rats (Rat-1 to Rat-5) ([3]; i.v. 10 mg/kg, 2.000 h, 10 mg/kg): 0 ng/mL | Blood concentration, individual rats (Rat-1 to Rat-5) ([3]; i.v. 10 mg/kg, 4.000 h, 10 mg/kg): 0 ng/mL | Blood concentration, individual rats (Rat-1 to Rat-5) ([3]; i.v. 10 mg/kg, 4.000 h, 10 mg/kg, 240 min): 121 ng/mL and 55 ng/mL | Blood concentration, individual rats (Rat-1 to Rat-5) ([3]; i.v. 10 mg/kg, 6.000 h, 10 mg/kg): 0 ng/mL | Blood concentration, individual rats (Rat-1 to Rat-5) ([3]; i.v. 10 mg/kg, 6.000 h, 10 mg/kg, 360 min): 51 ng/mL | Blood concentration, individual rats (Rat-1 to Rat-5) ([3]; i.v. 10 mg/kg, 24.000 h): 0 ng/mL | Blood concentration, individual rats (Rat-1 to Rat-5) ([3]; oral 100 mg/kg, 0.000 h): 0 ng/mL | Blood concentration, individual rats (Rat-1 to Rat-5) ([3]; oral 100 mg/kg, 2.000 h, 100 mg/kg): 0 ng/mL | Blood concentration, individual rats (Rat-1 to Rat-5) ([3]; oral 100 mg/kg, 4.000 h, 100 mg/kg): 0 ng/mL | Blood concentration, individual rats (Rat-1 to Rat-5) ([3]; oral 100 mg/kg, 4.000 h, 100 mg/kg, 240 min): 121 ng/mL and 55 ng/mL | Blood concentration, individual rats (Rat-1 to Rat-5) ([3]; oral 100 mg/kg, 6.000 h, 100 mg/kg): 0 ng/mL | Blood concentration, individual rats (Rat-1 to Rat-5) ([3]; oral 100 mg/kg, 6.000 h, 100 mg/kg, 360 min): 51 ng/mL | Blood concentration, individual rats (Rat-1 to Rat-5) ([3]; oral 100 mg/kg, 24.000 h): 0 ng/mL | concentration at 0.083 h ([3]; rat, blood, iv, 10 mg/kg, i.v. 10 mg/kg, 0.083 h, read-out: Blood concentration, individual rats (Rat-1 to Rat-5)): 8790 ng/mL | concentration at 6 h ([3]; rat, blood, iv, 10 mg/kg, i.v. 10 mg/kg, 6.000 h, read-out: Blood concentration, individual rats (Rat-1 to Rat-5)): 90 ng/mL | concentration at 0.033 h ([3]; rat, blood, iv, 10 mg/kg, rats, i.v. 10 mg/kg, 0.033 h): 21700 ng/mL | concentration at 0.083 h ([3]; rat, blood, iv, 10 mg/kg, rats, i.v. 10 mg/kg, 0.083 h, read-out: Blood concentration, Mean): 11500 ng/mL | concentration at 0.25 h ([3]; rat, blood, iv, 10 mg/kg, rats, i.v. 10 mg/kg, 0.250 h): 4150 ng/mL | concentration at 0.5 h ([3]; rat, blood, iv, 10 mg/kg, rats, i.v. 10 mg/kg, 0.500 h): 1780 ng/mL | concentration at 1 h ([3]; rat, blood, iv, 10 mg/kg, rats, i.v. 10 mg/kg, 1.000 h): 775 ng/mL | concentration at 2 h ([3]; rat, blood, iv, 10 mg/kg, rats, i.v. 10 mg/kg, 2.000 h): 178 ng/mL | concentration at 4 h ([3]; rat, blood, iv, 10 mg/kg, rats, i.v. 10 mg/kg, 4.000 h): 35 ng/mL | concentration at 6 h ([3]; rat, blood, iv, 10 mg/kg, rats, i.v. 10 mg/kg, 6.000 h, read-out: Blood concentration, Mean): 28 ng/mL | concentration at 0.083 h ([3]; rat, blood, po, 100 mg/kg, oral 100 mg/kg, 0.083 h, read-out: Blood concentration, individual rats (Rat-1 to Rat-5)): 8790 ng/mL | concentration at 6 h ([3]; rat, blood, po, 100 mg/kg, oral 100 mg/kg, 6.000 h, read-out: Blood concentration, individual rats (Rat-1 to Rat-5)): 90 ng/mL | concentration at 0.033 h ([3]; rat, blood, po, 100 mg/kg, rats, oral 100 mg/kg, 0.033 h): 21700 ng/mL | concentration at 0.083 h ([3]; rat, blood, po, 100 mg/kg, rats, oral 100 mg/kg, 0.083 h, read-out: Blood concentration, Mean): 11500 ng/mL | concentration at 0.25 h ([3]; rat, blood, po, 100 mg/kg, rats, oral 100 mg/kg, 0.250 h): 4150 ng/mL | concentration at 0.5 h ([3]; rat, blood, po, 100 mg/kg, rats, oral 100 mg/kg, 0.500 h): 1780 ng/mL | concentration at 1 h ([3]; rat, blood, po, 100 mg/kg, rats, oral 100 mg/kg, 1.000 h): 775 ng/mL | concentration at 2 h ([3]; rat, blood, po, 100 mg/kg, rats, oral 100 mg/kg, 2.000 h): 178 ng/mL | concentration at 4 h ([3]; rat, blood, po, 100 mg/kg, rats, oral 100 mg/kg, 4.000 h): 35 ng/mL | concentration at 6 h ([3]; rat, blood, po, 100 mg/kg, rats, oral 100 mg/kg, 6.000 h, read-out: Blood concentration, Mean): 28 ng/mL | bioavailability ([3]; rat, blood, po, rats, read-out: Bioavailability): 32.6% | half-life ([3]; rat, blood, rats, mean ± error, read-out: Elimination Half-life (converted)): 1.07 ± 0.27 h | half-life ([3]; rat, blood, rats, read-out: elimination half-time): 1.07 h | Blood concentration, Mean ([3]; rats, i.v. 10 mg/kg, 0.000 h): 0 ng/mL | Blood concentration, Mean ([3]; rats, i.v. 10 mg/kg, 24.000 h): 0 ng/mL | Blood concentration, Mean ([3]; rats, oral 100 mg/kg, 0.000 h): 0 ng/mL | Blood concentration, Mean ([3]; rats, oral 100 mg/kg, 24.000 h): 0 ng/mL | bioavailability ([3]; rats): 32.62 ± 7.69%
SMILES: CCn1c(CC[C@@H]2CCCN2C(=O)[C@H]2CCCN2CC(=O)O)cc2ccc(C(=N)N)cc21 [Compound 88, 2-[(R)-2-[[(S)-2-[2-(6-amidino-1-ethylindol-2-yl)ethyl]pyrrolidinyl]carbonyl]pyrrolidinyl]acetic acid]
Plasma TT ratio after administration to rat ([1]; 30 mg/kg oral): 2.62 | Plasma TT ratio after administration to rat ([1]; 50 mg/kg oral): 7.83 | Blood concentration, individual rats (Rat-1 to Rat-5) ([3]; i.v. 10 mg/kg, 0.033 h, 10 mg/kg, 1.98 min): 11186 ng/mL and 25999 ng/mL and 23841 ng/mL and 28971 ng/mL and 18505 ng/mL | Blood concentration, individual rats (Rat-1 to Rat-5) ([3]; i.v. 10 mg/kg, 0.083 h, 10 mg/kg, 4.98 min): 11984 ng/mL and 10776 ng/mL and 14222 ng/mL and 11623 ng/mL | Blood concentration, individual rats (Rat-1 to Rat-5) ([3]; i.v. 10 mg/kg, 0.250 h, 10 mg/kg, 15 min): 2707 ng/mL and 4629 ng/mL and 3531 ng/mL and 5982 ng/mL and 3895 ng/mL | Blood concentration, individual rats (Rat-1 to Rat-5) ([3]; i.v. 10 mg/kg, 0.500 h, 10 mg/kg, 30 min): 816 ng/mL and 1963 ng/mL and 1685 ng/mL and 2939 ng/mL and 1516 ng/mL | Blood concentration, individual rats (Rat-1 to Rat-5) ([3]; i.v. 10 mg/kg, 1.000 h, 10 mg/kg, 60 min): 784 ng/mL and 773 ng/mL and 577 ng/mL and 1204 ng/mL and 535 ng/mL | Blood concentration, individual rats (Rat-1 to Rat-5) ([3]; i.v. 10 mg/kg, 2.000 h, 10 mg/kg, 120 min): 204 ng/mL and 98 ng/mL and 424 ng/mL and 162 ng/mL | Blood concentration, individual rats (Rat-1 to Rat-5) ([3]; oral 100 mg/kg, 0.033 h, 100 mg/kg, 1.98 min): 11186 ng/mL and 25999 ng/mL and 23841 ng/mL and 28971 ng/mL and 18505 ng/mL | Blood concentration, individual rats (Rat-1 to Rat-5) ([3]; oral 100 mg/kg, 0.083 h, 100 mg/kg, 4.98 min): 11984 ng/mL and 10776 ng/mL and 14222 ng/mL and 11623 ng/mL | Blood concentration, individual rats (Rat-1 to Rat-5) ([3]; oral 100 mg/kg, 0.250 h, 100 mg/kg, 15 min): 2707 ng/mL and 4629 ng/mL and 3531 ng/mL and 5982 ng/mL and 3895 ng/mL | Blood concentration, individual rats (Rat-1 to Rat-5) ([3]; oral 100 mg/kg, 0.500 h, 100 mg/kg, 30 min): 816 ng/mL and 1963 ng/mL and 1685 ng/mL and 2939 ng/mL and 1516 ng/mL | Blood concentration, individual rats (Rat-1 to Rat-5) ([3]; oral 100 mg/kg, 1.000 h, 100 mg/kg, 60 min): 784 ng/mL and 773 ng/mL and 577 ng/mL and 1204 ng/mL and 535 ng/mL | Blood concentration, individual rats (Rat-1 to Rat-5) ([3]; oral 100 mg/kg, 2.000 h, 100 mg/kg, 120 min): 204 ng/mL and 98 ng/mL and 424 ng/mL and 162 ng/mL | distribution and disappearance after intravenous injection ([3]; rats, intravenous injection): rapidly distributed in the body and slowly disappeared
